# Source: patent US11559526B2, “Drug effective for lymphogenous drug administrating method” (TOHOKU UNIVERSITY, priority 2016, dated 2023)
# Counter-ions that a name gives are not always drawn.
# Tests used:
# KM-Luc/GFP cells = assay: Anticancer activity after administration into the accessory axillary lymph node, mouse model of proper axillary lymph node metastasis (KM-Luc/GFP), luciferase imaging; type: in vivo; design: key to Luciferase activity ratio calculated by Expression 3: day9/day6 normalized luciferase ratio, 0 μg/g set to 100; settings: for Luciferase activity ratio calculated by Expression 3: 0 μg/g set to 100
# Experimental: As a mouse model of lymphadenopathy, MXH10/Mo/lpr/lpr (MXH10/Mo/lpr) mice were prepared in accordance with the method previously reported (J Immunol Methods 2013; 389 (1-2): 69-78 doi 10.1016/j.jim.2013.01.004). In the following Examples, in total, 5 male and female model mice aged 15 to 18 weeks were used.
# Mouse fibroblast-derived KM-Luc/GFP cells were prepared in accordance with the method previously reported (PLoS One 2013; 8 (2): e55797 doi 10.1371/journal.pone.0055797). The KM-Luc/GFP cells were obtained by transfecting MRL/MpTn-gld/gld mouse fibroblast-derived cancer cells, MRL/N1 cells, with pEGFPLuc plasmid. The KM-Luc/GFP cells constantly express a luciferase gene and a green fluorescent gene. In the following Examples, the cells were cultured in Dulbecco's modified Eagle's medium (manufactured by Sigma-Aldrich) containing 10% FBS (fetal bovine serum), 1% L-Glutamine-P.S. solution (manufactured by Thermo Fisher Scientific) and 0.5% G418 and put in use.
# (§1) KM-Luc/GFP (cancer) cells, which were prepared by thawing the cells stored at −80° C. and thereafter sub-culturing them twice in total, were suspended in PBS (phosphate buffered saline) and the concentration thereof was controlled to be 1.0×10^6 cells/mL. Thereafter, the cell suspension was mixed with Matrigel (basement membrane matrix, manufactured by Becton, Dickinson and Co.) and diluted to a concentration of 3.3×10^5 cells/mL, and then, the resultant (60 μL) was inoculated into mouse subiliac lymph node (FIG. 1). The day when the cancer cells were inoculated was specified as day 0.
# (§2) Using a biological fluorescence imaging system (IVIS manufactured by Caliper Life Science), the growth rates of cancer cells in the subiliac lymph node and proper axillary lymph node were determined on day 0, day 6 and day 9 after inoculation of the cancer cells. 200 μL of luciferin (manufactured by Promega), the concentration of which was controlled to be 15 mg/mL, was injected into the abdominal cavity of the mouse. Ten minutes later, luciferase activity was determined using the IVIS.
# Of the mice on day 6 after cancer cell inoculation, mice having a luciferase activity of 1.0×10^6 photons/sec or more in the proper axillary lymph node were selected, and 120 μL of 5-FU was administered to the accessory axillary lymph node at a rate of 10 μL/min by use of a syringe pump (KDS100, manufactured by Muromachi) (FIG. 1).
# The luciferase activities on day 6 and day 9 were normalized in accordance with the following [Expression 1]. Thereafter, the ratio of the normalized luciferase activity on day 9 to that on day 6 was calculated in accordance with the following [Expression 2]. The ratio of the normalized luciferase activity on day 9 to that on day 6 at each administration concentration of 5-FU, when the ratio of the normalized luciferase activity on day 9 to that on day 6 at administration of 0 μg/g was set to 100, was calculated in accordance with the following [Expression 3]. Normalized luciferase activity on day 6 or day 9=((luciferase activity on day 6 or day 9)/(luciferase activity on day 0)) [Expression 1] Ratio of normalized luciferase activity on day 9 to that on day 6=((normalized luciferase activity on day 9)/(normalized luciferase activity on day 6)) [Expression 2] Ratio of normalized luciferase activity on day 9 to that on day 6 at each administration concentration of 5-FU, when the ratio of normalized luciferase activity on day 9 to that on day 6 at administration of 0 μg/g was set to 100,=((ratio of normalized luciferase activity on day 9 to that on day 6 at each administration concentration of 5-FU)/(ratio of normalized luciferase activity on day 9 to that on day 6 at administration of 0 μg/g)×100) [Expression 3] 3. Results […]
# The same method as in Example 1 was employed except that the test drug to be administered to the accessary axillary lymph node was changed to doxorubicin.
# cancer cell strain = settings: cited from earlier work
# FM3A-Luc cells = assay: Anticancer activity of docetaxel administered into a lymph node, mouse model of proper axillary lymph node metastasis (FM3A-Luc), luciferase imaging; type: in vivo; settings: for Luciferase activity ratio calculated by Expression 6 (day 6^T): day 6^T to day −1^T
# Experimental: Mouse breast cancer cell-derived FM3A-Luc cells were prepared in accordance with the method previously reported (J Immunol Methods 2013 Mar 29; 389 (1-2): 69-78. doi: 10.1016/j.jim.2013.01.004.). The FM3A-Luc cells were obtained by gene-introduction of pGL4.51 into FM3A cells by means of electroporation and constantly express a luciferase gene. In the following Examples, the cells were cultured in RPMI-1640 (manufactured by Sigma-Aldrich) containing 10% FBS (fetal bovine serum), 1% of an L-Glutamine-P.S. solution (manufactured by Theimo Fisher Scientific) and 0.5% of G418 and put in use.
# As docetaxel, taxotere for intravenous infusion, 80 mg (manufactured by Sanofi K. K.) was used. Taxotere for intravenous infusion 80 mg (2 mL) was dissolved in 13% ethanol (6 mL) to prepare a 10 mg/mL stock solution. Thereafter, the stock solution was dissolved with sterile water in such a way that the concentration per mouse body-weight became 0 μg/g, 1 μg/g and 10 μg/g.
# as §1, with “FM3A-Luc (cancer) cells,” for “KM-Luc/GFP (cancer) cells,”, “thawing the cancer cells stored” for “thawing the cells stored”, “were suspended with PBS (phosphate” for “were suspended in PBS (phosphate”, “and diluted up to a” for “and diluted to a”
# as §2, with “7, day 14, day 17, day 20, day 23, day 26” for “6”, “29” for “9”
# To a mouse confirmed to have a luciferase activity of 1.0×10^6 photons/sec or more in the proper axillary lymph node, docetaxel (120 μL) was administered to the accessory axillary lymph node on the day following confirmation at a rate of 10 μL/min by use of a syringe pump (KDS100, manufactured by Muromachi) (FIG. 1).
# The day when docetaxel was administered was defined as day 0^T. The luciferase activity on day 3^T (3 days after administration of docetaxel) and the luciferase activity on day 6^T (6 days after administration of docetaxel) were normalized in accordance with the following [Expression 4]. Thereafter, the ratio of the normalized luciferase activity on day 3^T or day 6^T to that on day −1^T (the day when the luciferase activity in the proper axillary lymph node was confirmed to be 1.0×10^6 photons/sec or more and the day before docetaxel administration) was calculated in accordance with the following [Expression 5]. The ratio of the normalized luciferase activity on day 3^T or day 6^T to that on day −1^T at each administration concentration of docetaxel, when the ratio of the normalized luciferase activity on day 3^T or day 6^T to that on day −1^T at administration of 0 μg/g was set to 100, was calculated in accordance with the following [Expression 6]. […]
# [1] = test system: cancer-containing proper axillary lymph node (PALN); settings: administration through the subiliac lymph node (SiLN); cited from earlier work
# [2] = 0.1 μg/g into accessory axillary lymph node, day 9 to day 6 ratio in proper axillary lymph node
# [3] = 1 μg/g into accessory axillary lymph node, day 9 to day 6 ratio
# [4] = 10 μg/g into accessory axillary lymph node, day 9 to day 6 ratio
compound,measurement,setting,value
"O=c1[nH]cc(F)c(=O)[nH]1 [5-FU, 5-fluorouracil]",Luciferase activity ratio calculated by Expression 3,KM-Luc/GFP cells; [2],9.27
same,Luciferase activity ratio calculated by Expression 3,KM-Luc/GFP cells; [3],9.12
same,Luciferase activity ratio calculated by Expression 3,KM-Luc/GFP cells; [4],1.49
same,tumor regression effect,KM-Luc/GFP cells; dose 0.1 μg/g,≥ 90%
"CCc1c2c(nc3ccc(OC(=O)N4CCC(N5CCCCC5)CC4)cc13)-c1cc3c(c(=O)n1C2)COC(=O)[C@]3(O)CC [CPT-11, irinotecan hydrochloride]",Luciferase activity ratio calculated by Expression 3,"KM-Luc/GFP cells; 0.5 μg/g into accessory axillary lymph node, day 9 to day 6 ratio",6.06
same,Luciferase activity ratio calculated by Expression 3,"KM-Luc/GFP cells; 5 μg/g into accessory axillary lymph node, day 9 to day 6 ratio",3.03
same,tumor regression effect,KM-Luc/GFP cells; dose 0.5 μg/g,≥ 90%
"CC(=O)O[C@@]12CO[C@@H]1C[C@H](O)[C@@]1(C)C(=O)[C@H](O)C3=C(C)[C@@H](OC(=O)[C@H](O)[C@@H](NC(=O)OC(C)(C)C)c4ccccc4)C[C@@](O)([C@@H](OC(=O)c4ccccc4)[C@H]21)C3(C)C [Docetaxel, docetaxel]",cell growth inhibitory activity of docetaxel compared with doxorubicin,cancer cell strain,almost equal to that of doxorubicin
same,Luciferase activity ratio calculated by Expression 6 (day 6^T),"FM3A-Luc cells; 1 μg/g into accessory axillary lymph node, 0 μg/g set to 100",7.5
same,Luciferase activity ratio calculated by Expression 6 (day 3^T),"FM3A-Luc cells; 10 μg/g into accessory axillary lymph node, day 3^T to day −1^T, 0 μg/g set to 100",16.2
same,Luciferase activity ratio calculated by Expression 6 (day 6^T),"FM3A-Luc cells; 10 μg/g into accessory axillary lymph node, 0 μg/g set to 100",1.7
same,tumor regression effect,"FM3A-Luc cells; dose 1 μg/g, day 6 after initiation of treatment",≥ 90%
same,tumor reduction ratio,FM3A-Luc cells; dose 10 μg/g,≥ 80%
"COc1cccc2c1C(=O)c1c(O)c3c(c(O)c1C2=O)C[C@@](O)(C(=O)CO)C[C@@H]3O[C@H]1C[C@H](N)[C@H](O)[C@H](C)O1 [Doxorubicin, doxorubicin hydrochloride]","cell growth inhibitory activity (GI50 value) of doxorubicin, times as high as those of 5-FU and CPT-11",cancer cell strain,"10 to 1,000 times"
same,Luciferase activity ratio calculated by Expression 3,KM-Luc/GFP cells; [2],40.9
same,Luciferase activity ratio calculated by Expression 3,KM-Luc/GFP cells; [3],43.2
same,Luciferase activity ratio calculated by Expression 3,KM-Luc/GFP cells; [4],75.0
same,best tumor reduction ratio,KM-Luc/GFP cells; dose 1 μg/g,less than 60%
same,tumor reduction ratio,KM-Luc/GFP cells; dose 10 μg/g,about 25%
same,anticancer effect in the proper axillary lymph node,[1],resulted in an anticancer effect
